{"source": "ChEMBL document CHEMBL4038345", "about": "“Design, Synthesis, and Biological Evaluation of Novel Selenium-Containing Isocombretastatins and Phenstatins as Antitumor Agents” (J Med Chem, 2017)", "key": {"[1]": {"test_system": "A549", "experiment": "Induction of apoptosis in human A549 cells assessed as late apoptotic cells at 10 nM for 48 hrs by annexin V-FITC/propidium iodide staining-based flow cytometry analysis", "format": "functional"}, "[2]": {"test_system": "A549", "experiment": "Disruption of mitochondrial membrane potential in human A549 cells assessed as intact mitochondrial membrane at 1 nM after 24 hrs by JC1 staining-based flow cytometry method (reference value: 99.18%)", "format": "functional"}, "[3]": {"test_system": "A549", "experiment": "Induction of apoptosis in human A549 cells assessed as live cells at 1 nM for 24 hrs by annexin V-FITC/propidium iodide staining-based flow cytometry analysis (reference value: 99.15%)", "format": "functional"}, "[4]": {"experiment": "Metabolic stability in Sprague-Dawley rat liver microsomes assessed as compound remaining after 60 mins in presence of NADPH by UV-based HPLC-MS/MS analysis", "format": "ADME, microsome", "details": "read-out: Stability"}, "[5]": {"test_system": "A549", "experiment": "Cell cycle arrest in human A549 cells assessed as increase in accumulation of cells at G2/M phase at 1 nM after 24 hrs by propidium iodide staining-based flow cytometry method", "format": "functional"}, "[6]": {"test_system": "A2780", "experiment": "cells", "details": "Homo sapiens, A2780, 48 h", "description": "Antiproliferative activity against human A2780 cells after 48 hrs by MTT assay"}, "[7]": {"test_system": "A549", "experiment": "Disruption of mitochondrial membrane potential in human A549 cells at 5 nM after 24 hrs by JC1 staining-based flow cytometry method (reference value: 0.62%)", "format": "functional"}, "[8]": {"test_system": "A549", "experiment": "Induction of apoptosis in human A549 cells assessed as downregulation of Bcl-xl expression at 1 to 10 nM after 24 to 48 hrs by Western blot analysis", "format": "functional, cell-based"}, "[9]": {"test_system": "RKO", "experiment": "Antiproliferative activity against human RKO cells after 48 hrs by MTT assay"}, "[10]": {"test_system": "A549", "experiment": "Induction of apoptosis in human A549 cells assessed as necrotic cells at 10 nM for 24 hrs by annexin V-FITC/propidium iodide staining-based flow cytometry analysis (reference value: 0.03%)", "format": "functional"}, "[11]": {"test_system": "A549", "experiment": "Induction of apoptosis in human A549 cells assessed as live cells at 1 nM for 48 hrs by annexin V-FITC/propidium iodide staining-based flow cytometry analysis (reference value: 99.01%)", "format": "functional"}, "[12]": {"test_system": "A549", "experiment": "Induction of apoptosis in human A549 cells assessed as early apoptotic cells at 10 nM for 48 hrs by annexin V-FITC/propidium iodide staining-based flow cytometry analysis (reference value: 0.97%)", "format": "functional"}, "[13]": {"test_system": "MDA-MB-231", "experiment": "Antiproliferative activity against human MDA-MB-231 cells after 48 hrs by MTT assay", "details": "MDA-MB-231, 48 h"}, "[14]": {"experiment": "Resistance index, ratio of IC50 for human A549/CDDP cells to IC50 for human A549 cells", "format": "functional"}, "[15]": {"test_system": "HeLa", "experiment": "cells", "details": "Homo sapiens, 48 h"}, "[16]": {"test_system": "A549", "experiment": "Induction of apoptosis in human A549 cells assessed as upregulation of Bad expression at 1 to 10 nM after 24 to 48 hrs by Western blot analysis", "format": "functional, cell-based"}, "[17]": {"test_system": "A549", "experiment": "Induction of apoptosis in human A549 cells assessed as early apoptotic cells at 5 nM for 24 hrs by annexin V-FITC/propidium iodide staining-based flow cytometry analysis (reference value: 0.82%)", "format": "functional"}, "[18]": {"test_system": "A549", "experiment": "Induction of apoptosis in human A549 cells assessed as late apoptotic cells at 5 nM for 48 hrs by annexin V-FITC/propidium iodide staining-based flow cytometry analysis", "format": "functional"}, "[19]": {"test_system": "MCF7", "experiment": "cells", "details": "Homo sapiens, MCF7, 48 h"}, "[20]": {"test_system": "A549", "experiment": "Disruption of mitochondrial membrane potential in human A549 cells assessed as intact mitochondrial membrane at 10 nM after 24 hrs by JC1 staining-based flow cytometry method (reference value: 99.18%)", "format": "functional"}}, "note": "The source made the active and inactive calls. The rule behind the calls is not given here."}
{"molecule": "C=C(c1ccc(OC)c(O)c1)c1cc(OC)c(OC)c([Se]C)c1", "values": [{"measurement": "Activity", "setting": "[1]", "value": 20.44, "unit": "%"}, {"measurement": "Activity", "setting": "[2]", "value": 86.88, "unit": "%"}, {"measurement": "Activity", "setting": "[3]", "value": 96.34, "unit": "%"}, {"measurement": "remaining at 1 h", "setting": "[4]", "value": 62.3, "unit": "%"}, {"measurement": "Activity", "setting": "[5]", "value": 50, "unit": "%"}, {"measurement": "IC50", "setting": "[6]", "value": 6, "unit": "nM"}, {"measurement": "Activity", "setting": "[7]", "value": 42.63, "unit": "%"}, {"measurement": "Activity", "setting": "[8]", "value": "Active"}, {"measurement": "IC50", "setting": "[9]", "value": 11, "unit": "nM"}, {"measurement": "Activity", "setting": "[10]", "value": 0.08, "unit": "%"}, {"measurement": "Activity", "setting": "[11]", "value": 80.49, "unit": "%"}, {"measurement": "Activity", "setting": "[12]", "value": 42.57, "unit": "%"}, {"measurement": "IC50", "setting": "[13]", "value": 2.2, "unit": "nM"}, {"measurement": "Ratio IC50", "setting": "[14]", "value": 8.8}, {"measurement": "IC50", "setting": "[15]", "value": 3, "unit": "nM"}, {"measurement": "Activity", "setting": "[16]", "value": "Active"}, {"measurement": "Activity", "setting": "[17]", "value": 31.36, "unit": "%"}, {"measurement": "Activity", "setting": "[18]", "value": 24.73, "unit": "%"}, {"measurement": "IC50", "setting": "[19]", "value": 27, "unit": "nM"}, {"measurement": "Activity", "setting": "[20]", "value": 9.14, "unit": "%"}]}
